Data taken from patent US20070197523A1, “CALCIUM CHANNEL ANTAGONISTS” (ICAGEN, INC., priority 2005, published 2007).

Tested on: T-type calcium channels
Assay: T-type calcium channel inhibitory activity (fluorometric FLIPR Fluo-4 and whole cell patch clamp)
Format: cell-based, mammalian
Settings: inhibition of T-type calcium channels; cells natively expressing or HEK-293 cells expressing recombinant channels
Procedure: T-type calcium channel inhibitory activity of some compounds of the invention was evaluated using both fluorometric as well as electrophysiological measurement methodologies, which are known to those skilled in the art. Fluorescence measurement of changes in intracellular calcium due to entry of calcium through T-type calcium channels was assessed using calcium sensitive fluorescent dyes Fluo-4 and Fluo-3. In brief, cells natively expressing T-type channels or HEK-293 cells transiently or stably expressing recombinant mammalian T-type calcium channels grown in 96-well tissue culture plates in DMEM/High glucose, Hyclone, Fetal Bovine Serum (10%), and 2 mM sodium pyruvate 2 mM (and for cells lines recombinantly expressing T-type calcium channels, G418 @ 400 mg/liter) were loaded with 4 μM Fluo-4 made up in Earls Balanced Salt Solution (EBSS). After incubation for 30 minutes at room temperature, cells were washed with low calcium (0.5 mM) EBSS to remove extracellular Fluo-4. Baseline fluorescence was measured in a FLIPR (FLuorescence Image Plate Reader) (Molecular Devices Inc) after applying test compounds at desired concentration for 5-10 minutes. The effect of test compound on calcium entry was assessed by monitoring changes in Fluo-4 fluorescence following an elevation of extracellular calcium concentration from 0.5 mM to 5 mM. […] Native cells natively expressing T-type channels or HEK-293 cells transiently or stably expressing recombinant mammalian T-type calcium channels were grown in DMEM/High glucose, Hyclone, Fetal Bovine Serum (10%), 2 mM sodium pyruvate 2 mM (and for cells lines recombinantly expressing T-type calcium channels, G418 @ 400 mg/liter) on glass coverslips in 35 mm tissue culture dishes. Experiments were performed by placing T-type calcium channels expressing cells in a recording chamber perfused with EBSS (which contains (in mM): 132 NaCl, 5.4 KCl, 1.8 CaCl2, 0.8 MgCl2, 10 Hepes, 5 glucose, pH 7.4 with NaOH) on the stage of an inverted microscope. Electrical currents were measured using the whole cell configuration of the patch clamp technique (Axopatch 200B, Axon Instruments (Molecular Devices) (see Hamill et al (1981) Pflugers Arch. 1981 391:85-100) using 2-2.5 MOhm resistance glass pipettes filled with 135 CsF, 5 CsCl, 5 NaCl, 5 EGTA, 10 HEPES, pH 7.3 with CsOH, Osmolarity ˜288 mOsm. Test compound effects were typically assessed under conditions in which approximately half of the available channels were inactivated either by an 8 second conditioning depolarization from a holding potential of −100 mV to a potential ranging from −70 mV to −60 mV or by continually holding the membrane potential at −70 mV. Test compounds were assessed for their ability to reduce the amplitude of the inward T-type calcium current elicited by a 100 ms step depolarization −20 or −30 mV.

SMILES | IC50
CCOc1cccc(S(=O)(=O)c2cnc(NC(=O)Cc3ccc(OC)c(OC)c3)s2)c1 [Example 1, 2-(3,4-Dimethoxy-phenyl)-N-[5-(3-ethoxy-benzenesulfonyl)-thiazol-2-yl]-acetamide] | 0.001 to 1 µM
CCOc1cccc(S(=O)(=O)c2cnc(Nc3cc(NCCN4CCCC4)ncn3)s2)c1 [Example 2, N-(2-Pyrrolidin-1-ethyl)-N′-[5-(3-ethoxy-benzenesulfonyl)-thiazol-2-yl]-pyrimidine-4,6-diamine] | 0.001 to 1 µM
CCOc1cccc(S(=O)(=O)c2cnc(Nc3cc(NCCN(C)C)ncn3)s2)c1 [Example 3, N-(2-Dimethylamino-ethyl)-N′-[5-(3-ethoxy-benzenesulfonyl)-thiazol-2-yl]-pyrimidine-4,6-diamine] | 0.001 to 1 µM
CCOc1cccc(S(=O)(=O)c2cnc(Nc3cc(NCCOC)ncn3)s2)c1 [Example 4, N-[5-(3-Ethoxy-benzenesulfonyl)-thiazol-2-yl]-N′-(2-methoxy-ethyl)-pyrimidine-4,6-diamine] | 1 to 10 µM
CCOc1cccc(S(=O)(=O)c2cnc(Nc3cc(N(C)CCOC)ncn3)s2)c1 [Example 5, N-[5-(3-Ethoxy-benzenesulfonyl)-thiazol-2-yl]-N′-(2-methoxy-ethyl)-N′-methyl-pyrimidine-4,6-diamine] | 1 to 10 µM
CCOc1cccc(S(=O)(=O)c2cnc(Nc3cc(NCC(C)(C)N)nc(C)n3)s2)c1 [Example 6, N-(2-Amino-2-methyl-propyl)-N′-[5-(3-ethoxy-benzenesulfonyl)-thiazol-2-yl]-2-methyl-pyrimidine-4,6-diamine] | 0.001 to 1 µM
CCOc1cccc(S(=O)(=O)c2cnc(Nc3cc(NCCOC)nc(C)n3)s2)c1 [Example 7, N-[5-(3-ethoxy-benzenesulfonyl)-thiazol-2-yl]-N′-(2-methoxy-ethyl)-2-methyl-pyrimidine-4,6-diamine] | 1 to 10 µM
CCOc1cccc(S(=O)(=O)c2cnc(Nc3cc(NCCN(C)C)nc(C)n3)s2)c1 [Example 8, N-(2-Dimethylamino-ethyl)-N′-[5-(3-ethoxy-benzenesulfonyl)-thiazol-2-yl]-2-methyl-pyrimidine-4,6-diamine] | 0.001 to 1 µM
CCOc1cccc(S(=O)(=O)c2cnc(Nc3cc(NCCN4CCCC4)nc(C)n3)s2)c1 [Example 9, N-[5-(3-ethoxy-benzenesulfonyl)-thiazol-2-yl]-2-methyl-N′-(2-pyrrolidin-1-yl-ethyl)-pyrimidine-4,6-diamine] | 0.001 to 1 µM
CCOc1cccc(S(=O)(=O)c2cnc(Nc3cc(NCC[C@H]4CCNC4)nc(C)n3)s2)c1 [Example 10, N-[5-(3-ethoxy-benzenesulfonyl)-thiazol-2-yl]-2-methyl-N′-(R)-(pyrrolidin-3-yl-ethyl)-pyrimidine-4,6-diamine] | 0.001 to 1 µM
CCOc1cccc(S(=O)(=O)c2cnc(Nc3cc(NCC4(N)CCCCC4)nc(C)n3)s2)c1 [Example 11, N-(1-Amino-cyclohexylmethyl)-N′-[5-(3-ethoxy-benzenesulfonyl)-thiazol-2-yl]-2-methyl-pyrimidine-4,6-diamine] | 0.001 to 1 µM
CCOc1cccc(S(=O)(=O)c2cnc(Nc3nc(C)nc(NCCN4CCCC4)c3F)s2)c1 [Example 12, N-[5-(3-Ethoxy-benzenesulfonyl)-thiazol-2-yl]-5-fluoro-2-methyl-N′-(2-pyrrolidin-1-yl-ethyl)-pyrimidine-4,6-diamine] | 0.001 to 1 µM
CCOc1cccc(S(=O)(=O)c2cnc(Nc3nc(C)nc(N(C)CCOC)c3F)s2)c1 [Example 13, N-[5-(3-ethoxy-benzenesulfonyl)-thiazol-2-yl]-5-fluoro-N′-(2-methoxy-ethyl)-2, N′-dimethyl-pyrimidine-4,6-diamine] | 0.001 to 1 µM
CCOc1cccc(S(=O)(=O)c2cnc(Nc3nc(C)nc(NCC(C)(C)N)c3F)s2)c1 [Example 14, N-(2-Amino-2-methyl-propyl)-N′-[5-(3-ethoxy-benzenesulfonyl)-thiazol-2-yl]-5-fluoro-2-methyl-pyrimidine-4,6-diamine] | 0.001 to 1 µM
CCOc1cccc(S(=O)(=O)c2cnc(N(CCCN3CCOCC3)c3nc(C)nc(NCCOC)c3F)s2)c1 [Example 15, N-[5-(3-ethoxy-benzenesulfonyl)-thiazol-2-yl]-5-fluoro-N′-(2-methoxy-ethyl)-2-methyl-N-(3′-morpholin-4-yl-propyl)-pyrimidine-4,6-diamine] | 0.001 to 1 µM
CCOc1cccc(S(=O)(=O)c2cnc(Nc3cc(NCCN4CCCC4)nc(C(F)(F)F)n3)s2)c1 [Example 16, N-[5-(3-Ethoxy-benzenesulfonyl)-thiazol-2-yl]-N′-(2-pyrrolidin-1-yl-ethyl)-2-trifluoromethyl-pyrimidine-4,6-diamine] | 0.001 to 1 µM
CCOc1cccc(S(=O)(=O)c2cnc(Nc3cc(NCCOC)nc(C(F)(F)F)n3)s2)c1 [Example 17, N-[5-(3-ethoxy-benzenesulfonyl)-thiazol-2-yl]-N′-(2-methoxy-ethyl)-2-trifluoromethyl-pyrimidine-4,6-diamine] | 0.001 to 1 µM
CCOc1cccc(S(=O)(=O)c2cnc(Nc3cc(NCC(C)(C)N)nc(C(F)(F)F)n3)s2)c1 [Example 18, N-(2-Amino-2-methyl-propyl)-N′-[5-(3-ethoxy-benzenesulfonyl)-thiazol-2-yl]-2-trifluoromethyl-pyrimidine-4,6-diamine] | 0.001 to 1 µM
CCOc1cccc(S(=O)(=O)c2cnc(Nc3cc(NCCN(C)C)nc(C(F)(F)F)n3)s2)c1 [Example 19, N-(2-Dimethylamino-ethyl)-N′-[5-(3-ethoxy-benzenesulfonyl)-thiazol-2-yl]-2-trifluoromethyl-pyrimidine-4,6-diamine] | 0.001 to 1 µM
CCOc1cccc(S(=O)(=O)c2cnc(Nc3cc(OCCN4CCCC4)nc(C)n3)s2)c1 [Example 20, [5-(3-Ethoxy-benzenesulfonyl)-thiazol-2-yl]-[2-methyl-6-(2-pyrrolidin-1-yl-ethoxy)-pyrimidin-4-yl]-amine] | 0.001 to 1 µM
CCOc1cccc(S(=O)(=O)c2cnc(Nc3cc(OC[C@H]4CCCN4)nc(C)n3)s2)c1 [Example 21, N-[5-(3-ethoxy-benzenesulfonyl)-thiazol-2-yl]-[2-methyl-((6R)-1-pyrrolidin-2-yl-methoxy)pyrimidin-4-yl]-amine] | 0.001 to 1 µM
CCOc1cccc(S(=O)(=O)c2cnc(Nc3cc(OC4CCNC4)nc(C)n3)s2)c1 (centres unmarked) [Example 22, N-[5-(3-ethoxy-benzenesulfonyl)-thiazol-2-yl]-[2-methyl-6-(pyrrolidin-3-yloxy)pyrimidin-4-yl]-amine] | 0.001 to 1 µM
CCOc1cccc(S(=O)(=O)c2cnc(Nc3cc(OCCOC)nc(C)n3)s2)c1 [Example 23, N-[5-(3-ethoxy-benzenesulfonyl)-thiazol-2-yl]-[6-(2-methoxy-ethoxy)-2-methyl-pyrimidin-4-yl]-amine] | 0.001 to 1 µM
CCOc1cccc(S(=O)(=O)c2cnc(Nc3nc(C)nc(OCCN4CCCC4)c3F)s2)c1 [Example 24, [5-(3-Ethoxy-benzenesulfonyl)-thiazol-2-yl]-[5-fluoro-2-methyl-6-(2-pyrrolidin-1-yl-ethoxy)-pyrimidin-4-yl]-amine] | 0.001 to 1 µM
CCOc1cccc(S(=O)(=O)c2cnc(Nc3nc(C)nc(OCCOC)c3F)s2)c1 [Example 25, N-[5-(3-ethoxy-benzenesulfonyl)-thiazol-2-yl]-[5-fluoro-6-(2-methoxy-ethoxy)-2-methyl-pyrimidin-4-yl]-amine] | 0.001 to 1 µM
CCOc1cccc(S(=O)(=O)c2cnc(Nc3nc(C)nc(OCCC4CCCC4)c3F)s2)c1 [Example 26, [6-(2-Cyclopentyl-ethoxy)-5-fluoro-2-methyl-pyrimidn-4-yl]-[5-(3-ethoxy-benzenesulfonyl)-thiazol-2-yl]-amine] | 10 to 1000 µM
CCOc1cccc(S(=O)(=O)c2cnc(Nc3nc(C)nc(OCCN(C)C)c3F)s2)c1 [Example 27, [6-(2-Dimethylamino-ethoxy)-5-fluoro-2-methyl-pyrimidn-4-yl]-[5-(3-ethoxy-benzenesulfonyl)-thiazol-2-yl]-amine] | 0.001 to 1 µM
CCOc1cccc(S(=O)(=O)c2cnc(Nc3cc(OCCN(C)C)nc(C(F)(F)F)n3)s2)c1 [Example 28, [6-(2-Dimethylamino-ethoxy)-2-trifluormethyl-pyrimidin-4-yl]-[5-(3-Ethoxy-benzenesulfonyl)-thiazol-2-yl]-amine] | 0.001 to 1 µM
CCOc1cccc(S(=O)(=O)c2cnc(Nc3cc(C#CCOC)nc(C)n3)s2)c1 [Example 29, [5-(3-Ethoxy-benzenesulfonyl)-thiazol-2-yl]-[6-(3-methoxy-prop-1-ynyl)-2-methyl-pyrimidin-4-yl]-amine] | 1 to 10 µM
